For 6 molecules, IC50 results are on record in patent US8288352B2, “Auristatins having an aminobenzoic acid unit at the N terminus” (priority 2004, dated 2012).

Like-named read-outs stand apart in the source and are kept apart here. Non-standard residues stand in square brackets, D forms with d. Residues, ends and D or L forms follow the SMILES beside them. *: point of attachment. Dolaproine = CO[C@@H]([C@@H]1CCCN1)[C@@H](C)C(=O)O; Dil = CC[C@H](C)[C@H](NC)[C@@H](CC(=O)O)OC; X1 = C[C@@H](N*)[C@@H](O)c1ccccc1; NMeV = CN[C@H](C(=O)O)C(C)C

Assay [1] relates to Karpas-299 anaplastic large cell lymphoma cell line (CD30+). Nature of the assay: In vitro cytotoxicity (alamarBlue) on Karpas 299. In kind it is cell-based, human. As to the method:
(§1) Table 6 summarizes cytotoxic activity of MMAF, 100, 103, 107 on H3396 human breast carcinoma and Karpas-299 anaplastic large cell lymphoma cell lines assayed. To evaluate the cytotoxicity of Compounds 100, 103, and 107, cells were seeded at approximately 10,000 per well in 150 μl of culture medium containing graded doses of Compounds 100, 103, and 107 in quadruplicates at the initiation of assay. Cytotoxicity assays were usually carried out for 96 hours. Fifty μl of the alamarBlue™ dye was added to each well during the last 4 to 6 hours of the incubation to assess viable cells at the end of culture. Dye reduction was determined by fluorescence spectrometry using the excitation and emission wavelengths of 535 nm and 590 nm, respectively. For analysis, the extent of alamarBlue™ reduction by the treated cells was compared to that of the untreated control cells.
(In general: Alamar Blue is a resazurin reagent that responds to reducing activity.)

The subject of assay [2] is H3396 human breast carcinoma. Nature of the assay: In vitro cytotoxicity (alamarBlue) on H3396. The conditions noted are these: read-out: IC50 values. In kind it is cell-based. The procedure: as §1
[3] abbreviates: karpas 299, 96 hours, alamarBlue, read-out: IC50 values.
Where [4] appears, read: Homo sapiens, KARPAS-299, 96 h, read-out: IC50 values.

Consider `CC[C@H](C)[C@@H]([C@@H](CC(=O)N1CCC[C@H]1[C@H](OC)[C@@H](C)C(=O)N[C@H](C)[C@@H](O)c1ccccc1)OC)N(C)C(=O)[C@@H](NC(=O)[C@@H](NC)C(C)C)C(C)C` [MMAE, mono-methyl auristatin E, reference compound] (H-[NMeV]V[Dil][Dolaproine]-X1), for which the half-inhibitory concentration (IC50) stood at 0.13 nM in assay [1] (setting [3]) and 0.8 nM in assay [2] (H3396, 96 hours, alamarBlue).

As to “cAC10-vc-MMAF: cAC10 Conjugate with Val-Cit linker and MMAF, average 4 drugs per antibody [reference compound]”, the 50% inhibitory concentration (IC50) in assay [1] (cAC10 conjugates, all 4 drugs/Ab, CD30+ cell line Karpas 299) is on record as 0.75 ng/mL.

Turning to `CC[C@H](C)[C@@H]([C@@H](CC(=O)N1CCC[C@H]1[C@H](OC)[C@@H](C)C(=O)N[C@@H](Cc1ccccc1)C(=O)OC)OC)N(C)C(=O)[C@@H](NC(=O)c1ccc(N)cc1)C(C)C` [Compound 107, 4-Abz-Val-Dil-Dap-Phe-OMe], the concentration for half-maximal inhibition (IC50) in assay [1] (setting [4]) stood at 0.12 nM; in assay [2] (Homo sapiens, H3396, 96 h) it was 0.003 nM.

`CC[C@H](C)[C@@H]([C@@H](CC(=O)N1CCC[C@H]1[C@H](OC)[C@@H](C)C(=O)N[C@@H](Cc1ccccc1)C(=O)O)OC)N(C)C(=O)[C@@H](NC(=O)c1ccc(N)cc1)C(C)C` [Compound 103, 4-Abz-Val-Dil-Dap-Phe]: the IC50 in assay [1] (setting [4]) was 43 nM; in assay [2] (Homo sapiens, H3396, 96 h) it was greater than 100 nM.

Regarding `CC[C@H](C)[C@@H]([C@@H](CC(=O)N1CCC[C@H]1[C@H](OC)[C@@H](C)C(=O)N[C@@H](Cc1ccccc1)C(=O)O)OC)N(C)C(=O)[C@@H](NC(=O)[C@@H](NC)C(C)C)C(C)C` [MMAF, N-methylvaline-valine-dolaisoleuine-dolaproine-phenylalanine, reference compound] (H-[NMeV]V[Dil][Dolaproine]F-OH), the half-inhibitory concentration (IC50) worked out at 130 nM in assay [1] (setting [3]) and 104 nM in assay [2] (H3396, 96 hours, alamarBlue).

In the case of `CC[C@H](C)[C@@H]([C@@H](CC(=O)N1CCC[C@H]1[C@H](OC)[C@@H](C)C(=O)N[C@@H](Cc1ccccc1)C(=O)OC(C)(C)C)OC)N(C)C(=O)[C@@H](NC(=O)c1ccc(N)cc1)C(C)C` [Compound 100, 4-Abz-Val-Dil-Dap-Phe-OtBu], the IC50 came out at 1.8 nM in assay [1] (setting [4]) and 17.8 nM in assay [2] (Homo sapiens, H3396, 96 h).

For orientation: IC50 means the point on the concentration scale where inhibition reaches its midpoint.
